Converted amounts (≈) assume the structure as drawn. The source made the active and inactive calls. No cut-off for these calls is given here.
Columns and labels:
Human alphaherpesvirus 1 = assay: Antiviral activity against HSV1 by green fluorescent protein microplate assay; format: functional, organism-based
[1] = tested on: Mycobacterium tuberculosis; assay: Antitubercular activity against Mycobacterium tuberculosis H37Ra by green fluorescent protein microplate assay; format: functional
NCI-H187 = assay: Cytotoxicity against human NCI-H187 cells by resazurin microplate assay; format: functional, cell-based
KB = assay: Cytotoxicity against human KB cells by resazurin microplate assay; format: functional, cell-based
Plasmodium falciparum = assay: Antimalarial activity against Plasmodium falciparum K1 by microculture radioisotope technique; format: functional, organism-based
MCF7 = assay: Cytotoxicity against human MCF7 cells by resazurin microplate assay; format: functional, cell-based
Vero = assay: Cytotoxicity against african green monkey Vero cells by green fluorescent protein microplate assay; format: cell-based; settings: Chlorocebus sabaeus
[2] = Human alphaherpesvirus 1, read-out: IC50

SMILES | MIC [1] | Activity (NCI-H187) | IC50 (Human alphaherpesvirus 1) | Activity (KB) | Activity (Plasmodium falciparum) | further results
O=c1oc(CO)cc2cc(O)cc(O)c12 | 25 µg/mL (≈ 120 µM) | inactive |  |  |  | IC50 (Human alphaherpesvirus 1; [2]): 50 µg/mL (≈ 240 µM)
CO[C@H]1[C@H](O)[C@@H](O)[C@H](Oc2cc(O)c3c(=O)oc(C)cc3c2)O[C@@H]1CO | inactive | inactive | Not Active | inactive | inactive | 
CO[C@H]1[C@H](O)[C@@H](O)[C@H](Oc2cc(O)c3c(=O)oc(CO)cc3c2)O[C@@H]1CO | inactive | inactive | Not Active | inactive | inactive | Activity (MCF7): inactive
Nc1nc2c(ncn2COCCO)c(=O)[nH]1 [ACYCLOVIR] |  |  |  |  |  | IC50 (Human alphaherpesvirus 1; [2]): 6.86 µg/mL (≈ 30.5 µM)
Cc1c2ccncc2c(C)c2c1[nH]c1ccccc12 [ELLIPTECINE] |  |  |  |  |  | IC50 (Vero): 1.16 µg/mL (≈ 4.71 µM)
COc1cccc2c1C(=O)c1c(O)c3c(c(O)c1C2=O)C[C@@](O)(C(=O)CO)C[C@@H]3O[C@H]1C[C@H](N)[C@H](O)[C@H](C)O1 [DOXORUBICIN] |  |  |  |  |  | IC50 (MCF7): 0.899 µg/mL (≈ 1.65 µM); IC50 (KB): 0.144 µg/mL (≈ 0.265 µM); IC50 (NCI-H187): 0.058 µg/mL (≈ 0.107 µM)
Cc1cc2cc(O)cc(O)c2c(=O)o1 | inactive | inactive | Not Active | inactive | inactive | 
C[C@H]1[C@@H](O)O[C@@H]2O[C@@]3(C)CC[C@H]4[C@H](C)CC[C@@H]1[C@@]24OO3 [ARTENIMOL] |  |  |  |  |  | IC50 (Plasmodium falciparum): 0.0011 µg/mL (≈ 0.00387 µM)
NNC(=O)c1ccncc1 [ISONIAZID] | 0.023 µg/mL (≈ 0.168 µM) |  |  |  |  | 
CO[C@H]1[C@H](O)[C@@H](O)[C@H](OCc2cc3cc(O)cc(O)c3c(=O)o2)O[C@@H]1CO | inactive | inactive | Not Active | inactive | inactive | 
